Source: patent publication US12606568B2, “SMARCA degraders and uses thereof” (Kymera Therapeutics, Inc., priority 2020, dated 2026)

Key:
Format in all cases: cell-based
SMARCA4 = molecular target: T1, SMARCA4 (Homo sapiens, UniProt P51532); assay: SMARCA4 Western blot MV4-11 degradation; conditions: for Dmax: MV4-11, MV4-11 cells, read-out: SMARCA4 MSD MV411 degradation 24 h: average Dmax %; for Dmax / DC50: 24 h; for DC50 / SMARCA4 MSD MV411 degradation 24 h: average Dmax %: MV4-11 cells; for DC50: read-out: SMARCA4 MSD MV411 degradation 24 h: Mean external-Abs DC50
T1 construct: SMARCA2 and SMARCA4 protein degradation in MV4-11 cells; endogenous in cells; host or cells: MV4-11
T1 sequence (P51532 whole entry): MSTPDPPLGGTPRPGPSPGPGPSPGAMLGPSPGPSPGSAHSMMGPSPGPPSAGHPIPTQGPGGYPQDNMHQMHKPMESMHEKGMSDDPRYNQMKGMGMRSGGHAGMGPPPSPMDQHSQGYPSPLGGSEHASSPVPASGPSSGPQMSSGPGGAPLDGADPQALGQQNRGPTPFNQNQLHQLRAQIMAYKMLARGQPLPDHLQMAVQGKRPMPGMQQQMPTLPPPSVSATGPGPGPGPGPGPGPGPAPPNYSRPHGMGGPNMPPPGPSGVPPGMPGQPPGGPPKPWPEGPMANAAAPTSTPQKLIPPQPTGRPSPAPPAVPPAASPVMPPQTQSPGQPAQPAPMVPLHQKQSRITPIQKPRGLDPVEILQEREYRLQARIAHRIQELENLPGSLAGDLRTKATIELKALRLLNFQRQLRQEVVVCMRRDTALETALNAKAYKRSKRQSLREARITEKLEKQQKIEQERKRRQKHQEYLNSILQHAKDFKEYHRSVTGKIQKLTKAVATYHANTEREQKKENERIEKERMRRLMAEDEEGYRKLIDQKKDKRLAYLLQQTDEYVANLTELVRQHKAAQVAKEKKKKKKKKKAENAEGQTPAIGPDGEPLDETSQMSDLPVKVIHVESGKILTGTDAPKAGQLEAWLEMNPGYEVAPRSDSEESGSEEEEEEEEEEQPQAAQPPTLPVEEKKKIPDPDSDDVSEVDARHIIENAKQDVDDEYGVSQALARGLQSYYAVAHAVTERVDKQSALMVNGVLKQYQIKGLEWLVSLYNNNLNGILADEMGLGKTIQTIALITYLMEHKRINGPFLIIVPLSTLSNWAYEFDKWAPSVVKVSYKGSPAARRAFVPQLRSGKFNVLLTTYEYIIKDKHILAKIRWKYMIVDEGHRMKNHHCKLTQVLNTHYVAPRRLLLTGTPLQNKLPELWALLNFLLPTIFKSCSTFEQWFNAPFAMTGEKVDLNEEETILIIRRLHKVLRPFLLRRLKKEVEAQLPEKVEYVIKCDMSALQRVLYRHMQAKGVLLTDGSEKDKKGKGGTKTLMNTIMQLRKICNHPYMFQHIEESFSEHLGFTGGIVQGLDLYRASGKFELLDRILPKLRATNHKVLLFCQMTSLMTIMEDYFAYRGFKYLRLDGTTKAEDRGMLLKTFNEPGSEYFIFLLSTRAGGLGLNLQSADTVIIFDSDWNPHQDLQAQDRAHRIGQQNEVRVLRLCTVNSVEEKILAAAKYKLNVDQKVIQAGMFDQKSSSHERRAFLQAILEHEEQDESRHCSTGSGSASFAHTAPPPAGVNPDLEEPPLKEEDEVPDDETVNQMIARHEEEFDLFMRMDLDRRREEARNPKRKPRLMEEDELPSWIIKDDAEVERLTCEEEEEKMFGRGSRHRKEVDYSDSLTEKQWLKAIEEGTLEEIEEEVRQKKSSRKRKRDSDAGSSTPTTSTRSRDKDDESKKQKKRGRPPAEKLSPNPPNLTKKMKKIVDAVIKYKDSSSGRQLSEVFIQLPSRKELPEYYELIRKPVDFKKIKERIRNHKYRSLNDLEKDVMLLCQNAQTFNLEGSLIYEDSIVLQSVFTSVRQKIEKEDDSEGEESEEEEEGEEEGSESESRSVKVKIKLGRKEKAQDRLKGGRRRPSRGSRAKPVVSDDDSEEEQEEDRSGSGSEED

SMARCA2 [1] = molecular target: T2, SMARCA2 (Homo sapiens, UniProt P51531); assay: MSD SMARCA2 degradation in A549 cell line; design: endogenous in cells; conditions: for Dmax: A549, A549 cells; for Dmax / DC50: 24 h; for DC50 / SMARCA2 MSD A549 degradation 24 h: Average Dmax %: A549 cells; for DC50: read-out: SMARCA2 MSD A549 degradation 24 h: Average external-Abs DC50
T2 sequence (P51531 whole entry): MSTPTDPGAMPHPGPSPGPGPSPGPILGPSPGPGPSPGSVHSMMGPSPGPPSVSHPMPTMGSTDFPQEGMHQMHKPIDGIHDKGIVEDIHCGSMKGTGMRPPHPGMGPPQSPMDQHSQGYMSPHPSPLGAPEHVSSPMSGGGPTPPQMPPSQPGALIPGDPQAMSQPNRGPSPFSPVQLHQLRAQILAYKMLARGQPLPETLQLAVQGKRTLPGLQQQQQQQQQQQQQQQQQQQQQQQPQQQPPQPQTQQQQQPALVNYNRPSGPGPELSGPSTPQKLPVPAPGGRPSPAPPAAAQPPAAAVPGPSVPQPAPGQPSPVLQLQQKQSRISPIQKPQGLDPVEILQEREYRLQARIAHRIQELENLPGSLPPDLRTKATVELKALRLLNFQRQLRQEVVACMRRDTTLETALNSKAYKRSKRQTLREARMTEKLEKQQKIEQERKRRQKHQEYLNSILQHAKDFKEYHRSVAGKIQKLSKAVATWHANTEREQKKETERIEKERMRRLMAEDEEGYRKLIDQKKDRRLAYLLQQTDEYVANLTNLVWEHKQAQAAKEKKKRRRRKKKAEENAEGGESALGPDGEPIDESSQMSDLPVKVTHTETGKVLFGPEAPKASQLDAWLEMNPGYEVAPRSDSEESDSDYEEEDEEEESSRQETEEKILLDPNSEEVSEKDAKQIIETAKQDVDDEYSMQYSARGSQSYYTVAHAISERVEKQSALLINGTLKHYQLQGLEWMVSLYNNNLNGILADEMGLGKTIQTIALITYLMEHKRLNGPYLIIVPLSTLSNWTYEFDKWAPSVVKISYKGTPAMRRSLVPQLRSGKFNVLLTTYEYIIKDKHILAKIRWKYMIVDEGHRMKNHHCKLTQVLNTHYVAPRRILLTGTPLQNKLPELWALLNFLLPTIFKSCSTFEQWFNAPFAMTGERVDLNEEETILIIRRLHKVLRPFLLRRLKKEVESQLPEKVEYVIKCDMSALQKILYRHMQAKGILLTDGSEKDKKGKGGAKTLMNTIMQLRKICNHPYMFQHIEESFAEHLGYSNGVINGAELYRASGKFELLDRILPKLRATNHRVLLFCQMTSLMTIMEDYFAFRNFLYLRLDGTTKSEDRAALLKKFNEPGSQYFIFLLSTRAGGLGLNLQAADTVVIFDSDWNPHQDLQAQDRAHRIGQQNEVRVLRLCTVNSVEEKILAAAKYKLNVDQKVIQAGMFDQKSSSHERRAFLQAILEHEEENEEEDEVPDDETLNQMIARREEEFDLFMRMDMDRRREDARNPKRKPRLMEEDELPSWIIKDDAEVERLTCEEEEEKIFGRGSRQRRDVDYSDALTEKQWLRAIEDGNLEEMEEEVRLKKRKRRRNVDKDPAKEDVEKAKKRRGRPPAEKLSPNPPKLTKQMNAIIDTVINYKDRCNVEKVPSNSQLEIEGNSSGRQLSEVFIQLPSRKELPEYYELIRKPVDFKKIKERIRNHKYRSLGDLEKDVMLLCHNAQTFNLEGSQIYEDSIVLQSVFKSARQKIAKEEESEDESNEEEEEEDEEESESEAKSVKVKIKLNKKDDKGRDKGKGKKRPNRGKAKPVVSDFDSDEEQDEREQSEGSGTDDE
Method in brief: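 A549 cells treated 24 h with compound, 3-fold series 1000 nM down to 0.152 nM plus DMSO. RIPA lysates captured on MSD plates, probed with rabbit anti-SMARCA2/BRM (1 µg/ml) then SULFO-TAG anti-rabbit, electrochemiluminescence read. DC50 and 24 h Dmax reported as letter bins.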

SMARCA2 [2] = molecular target: T2, SMARCA2; assay: SMARCA2 Western blot MV4-11 degradation; design: SMARCA2 and SMARCA4 protein degradation in MV4-11 cells; endogenous in cells; host or cells: MV4-11; conditions: for Dmax: MV4-11, MV4-11 cells, read-out: SMARCA2 MSD MV411 degradation 24 h: average Dmax %; for Dmax / DC50: 24 h; for DC50 / SMARCA2 MSD MV411 degradation 24 h: average Dmax %: MV4-11 cells; for DC50: read-out: SMARCA2 MSD MV411 degradation 24 h: Mean external-Abs DC50

Row | Compound | Dmax (SMARCA4) | DC50 (SMARCA4) | Dmax (SMARCA2 [1]) | DC50 (SMARCA2 [1]) | Dmax (SMARCA2 [2]) | DC50 (SMARCA2 [2]) | SMARCA4 MSD MV411 degradation 24 h: average Dmax % (SMARCA4) | SMARCA2 MSD A549 degradation 24 h: Average Dmax % (SMARCA2 [1]) | SMARCA2 MSD MV411 degradation 24 h: average Dmax % (SMARCA2 [2])
1 | Cc1ncsc1-c1ccc(CNC(=O)[C@@H]2C[C@@H](O)CN2C(=O)[C@@H](NC(=O)[C@H]2CC3(C2)C[C@H](N2CCC(Oc4ccc(N5C6CCC5CN(c5cc(-c7ccccc7O)nnc5N)C6)cn4)CC2)C3)C(C)(C)C)cc1 (stereo partly drawn) [I-39, (2S,4R)-1-((2S)-2-(6-(4-((5-(3-(3-amino-6-(2-hydroxyphenyl)pyridazin-4-yl)-3,8-diazabicyclo[3.2.1]octan-8-yl)pyridin-2-yl)oxy)piperidin-1-yl)spiro[3.3]heptane-2-carboxamido)-3,3-dimethylbutanoyl)-4-hydroxy-N-(4-(4-methylthiazol-5-yl)benzyl)pyrrolidine-2-carboxamide] | > 90% | > 1000 nM | 50 to 70% | > 1000 nM | 70 to 90% | 100 to 500 nM |  |  | 
2 | Cc1ncsc1-c1ccc(CNC(=O)[C@@H]2C[C@@H](O)CN2C(=O)C(c2cc(N3CCC(CCN4CCC(c5cnc(N6C7CCC6CN(c6cc(-c8ccccc8O)nnc6N)C7)nc5)CC4)CC3)no2)C(C)C)cc1 (stereo partly drawn) [I-61, (2S,4R)-1-(2-(3-(4-(2-(4-(2-(3-(3-amino-6-(2-hydroxyphenyl)pyridazin-4-yl)-3,8-diazabicyclo[3.2.1]octan-8-yl)pyrimidin-5-yl)piperidin-1-yl)ethyl)piperidin-1-yl)isoxazol-5-yl)-3-methylbutanoyl)-4-hydroxy-N-(4-(4-methylthiazol-5-yl)benzyl)pyrrolidine-2-carboxamide] | > 90% | < 100 nM | > 90% | < 100 nM | > 90% | < 100 nM |  |  | 
3 | Cc1ncsc1-c1ccc(CNC(=O)[C@@H]2C[C@H](O)CN2C(=O)[C@@H](NC(=O)[C@H]2CC3(C2)C[C@H](N2CCC(c4cnc(N5C6CCC5CN(c5cc(-c7ccccc7O)nnc5N)C6)nc4)CC2)C3)C(C)(C)C)cc1 (stereo partly drawn) [I-79, (2S,4S)-1-((2S)-2-(6-(4-(2-(3-(3-amino-6-(2-hydroxyphenyl)pyridazin-4-yl)-3,8-diazabicyclo[3.2.1]octan-8-yl)pyrimidin-5-yl)piperidin-1-yl)spiro[3.3]heptane-2-carboxamido)-3,3-dimethylbutanoyl)-4-hydroxy-N-(4-(4-methylthiazol-5-yl)benzyl)pyrrolidine-2-carboxamide] | < 50% | > 1000 nM | < 50% | > 1000 nM | < 50% | > 1000 nM |  |  | 
4 | Cc1ncsc1-c1ccc(CNC(=O)[C@@H]2C[C@@H](O)CN2C(=O)[C@@H](NC(=O)[C@H]2CC3(C2)C[C@H](N2CC4(CN(c5cnc(N6C7CCC6CN(c6cc(-c8ccccc8O)nnc6N)C7)nc5)C4)C2)C3)C(C)(C)C)cc1 (stereo partly drawn) [I-12, (2S,4R)-1-((2S)-2-(6-(6-(2-(3-(3-amino-6-(2-hydroxyphenyl)pyridazin-4-yl)-3,8-diazabicyclo[3.2.1]octan-8-yl)pyrimidin-5-yl)-2,6-diazaspiro[3.3]heptan-2-yl)spiro[3.3]heptane-2-carboxamido)-3,3-dimethylbutanoyl)-4-hydroxy-N-(4-(4-methylthiazol-5-yl)benzyl)pyrrolidine-2-carboxamide] |  | > 1000 nM |  | 100 to 500 nM |  | < 100 nM |  |  | 
5 | Cc1ncsc1-c1ccc(CNC(=O)[C@@H]2C[C@@H](O)CN2C(=O)[C@@H](NC(=O)[C@H]2CC3(C2)C[C@H](N2CC4(CN(c5cnc(N6C7CCC6CN(c6cc(-c8ccccc8O)nnc6N)C7)nc5)C4)C2)C3)C(C)(C)C)cc1 (stereo partly drawn) [I-11, (2S,4R)-1-((2S)-2-(6-(6-(2-(3-(3-amino-6-(2-hydroxyphenyl)pyridazin-4-yl)-3,8-diazabicyclo[3.2.1]octan-8-yl)pyrimidin-5-yl)-2,6-diazaspiro[3.3]heptan-2-yl)spiro[3.3]heptane-2-carboxamido)-3,3-dimethylbutanoyl)-4-hydroxy-N-(4-(4-methylthiazol-5-yl)benzyl)pyrrolidine-2-carboxamide] | < 50% | > 1000 nM | 70 to 90% | 100 to 500 nM | 70 to 90% | < 100 nM |  |  | 
6 | Cc1ncsc1-c1ccc(CNC(=O)[C@@H]2C[C@@H](O)CN2C(=O)[C@@H](NC(=O)[C@H]2CCC3(CC2)C[C@H](N2CCC(c4cnc(N5C6CCC5CN(c5cc(-c7ccccc7O)nnc5N)C6)nc4)CC2)C3)C(C)(C)C)cc1 (stereo partly drawn) [I-43, (2S,4R)-1-((2S)-2-(2-(4-(2-(3-(3-amino-6-(2-hydroxyphenyl)pyridazin-4-yl)-3,8-diazabicyclo[3.2.1]octan-8-yl)pyrimidin-5-yl)piperidin-1-yl)spiro[3.5]nonane-7-carboxamido)-3,3-dimethylbutanoyl)-4-hydroxy-N-(4-(4-methylthiazol-5-yl)benzyl)-pyrrolidine-2-carboxamide] |  | > 1000 nM |  | 100 to 500 nM |  | < 100 nM |  |  | 
7 | Cc1ncsc1-c1ccc(CNC(=O)[C@@H]2C[C@@H](O)CN2C(=O)[C@@H](NC(=O)C2CC3(C2)CC(N2CCC(Oc4cc(N5C6CCC5CN(c5cc(-c7ccccc7O)nnc5N)C6)ccn4)CC2)C3)C(C)(C)C)cc1 (stereo partly drawn) [I-38, (2S,4R)-1-((2S)-2-(6-(4-((4-(3-(3-amino-6-(2-hydroxyphenyl)pyridazin-4-yl)-3,8-diazabicyclo[3.2.1]octan-8-yl)pyridin-2-yl)oxy)piperidin-1-yl)spiro[3.3]heptane-2-carboxamido)-3,3-dimethylbutanoyl)-4-hydroxy-N-(4-(4-methylthiazol-5-yl)benzyl)pyrrolidine-2-carboxamide] | > 90% | > 1000 nM | 70 to 90% | > 1000 nM | < 50% | > 1000 nM |  |  | 
8 | Cc1ncsc1-c1ccc([C@H](C)NC(=O)[C@@H]2C[C@@H](O)CN2C(=O)[C@@H](NC(=O)[C@H]2CCC3(CC2)C[C@H](N2CCC(c4cnc(N5C6CCC5CN(c5cc(-c7ccccc7O)nnc5N)C6)nc4)CC2)C3)C(C)(C)C)cc1 (stereo partly drawn) [I-16, (2S,4R)-1-((2S)-2-(2-(4-(2-(3-(3-amino-6-(2-hydroxyphenyl)pyridazin-4-yl)-3,8-diazabicyclo[3.2.1]octan-8-yl)pyrimidin-5-yl)piperidin-1-yl)spiro[3.5]nonane-7-carboxamido)-3,3-dimethylbutanoyl)-4-hydroxy-N—((S)-1-(4-(4-methylthiazol-5-yl)phenyl)ethyl)pyrrolidine-2-carboxamide] |  | < 100 nM |  | 100 to 500 nM |  | < 100 nM | B (B (>70-90% degradation)) | A (A (>90% o degradation)) | A (A (>90% degradation))
9 | Cc1ncsc1-c1ccc([C@H](C)NC(=O)[C@@H]2C[C@@H](O)CN2C(=O)[C@@H](NC(=O)[C@H]2CC3(C2)C[C@H](N2CCC(c4cnc(N5C6CCC5CN(c5cc(-c7ccccc7O)nnc5N)C6)nc4)CC2)C3)C(C)(C)C)cc1 (single isomer, unassigned) [I-2] |  | < 100 nM |  | < 100 nM |  | < 100 nM | B (B (>70-90% degradation)) | A (A (>90% o degradation)) | A (A (>90% degradation))
10 | Cc1ncsc1-c1ccc(CNC(=O)[C@@H]2C[C@@H](O)CN2C(=O)C(c2cc(OCCCOCCCN3CCC(Cn4cc(-c5cc(-c6ccccc6O)nnc5N)cn4)CC3)no2)C(C)C)cc1 (stereo partly drawn) [I-21, (2S,4R)-1-(2-(3-(3-(3-(4-((4-(3-amino-6-(2-hydroxyphenyl)pyridazin-4-yl)-1H-pyrazol-1-yl)methyl)piperidin-1-yl)propoxy)propoxy)isoxazol-5-yl)-3-methylbutanoyl)-4-hydroxy-N-(4-(4-methylthiazol-5-yl)benzyl)pyrrolidine-2-carboxamide] | 70 to 90% | 501 to 1000 nM | > 90% | > 1000 nM | > 90% | < 100 nM |  |  | 
11 | Cc1n[nH]c(C)c1-c1ccc(CNC(=O)[C@@H]2C[C@@H](O)CN2C(=O)[C@@H](NC(=O)[C@H]2CC3(C2)C[C@H](N2CCC(c4cnc(N5C6CCC5CN(c5cc(-c7ccccc7O)nnc5N)C6)nc4)CC2)C3)C(C)(C)C)cc1 (stereo partly drawn) [I-32, (2S,4R)-1-((2S)-2-(6-(4-(2-(3-(3-amino-6-(2-hydroxyphenyl)pyridazin-4-yl)-3,8-diazabicyclo[3.2.1]octan-8-yl)pyrimidin-5-yl)piperidin-1-yl)spiro[3.3]heptane-2-carboxamido)-3,3-dimethylbutanoyl)-N-(4-(3,5-dimethyl-1H-pyrazol-4-yl)benzyl)-4-hydroxypyrrolidine-2-carboxamide] |  | > 1000 nM |  |  |  | 100 to 500 nM | D (D (<50% degradation)) | D (D (<50% degradation)) | D (D (<50% degradation))
